How the values were obtained:
[1] = molecular target: Tubulin alpha chain (Sus scrofa) (UniProt P02550); assay: Evaluated for ability to initiate the polymerization of tubulin in the microtubule assembly assay expressed as ED50(compound) / ED50(taxol); type: functional
[2] = tested on: B16; assay: Cytotoxic ratio of inhibition of B16 melanoma cell proliferation after 40 hour incubation relative to taxol; type: functional, Mus musculus

Tubulin alpha chain (Sus scrofa), sequence (P02550 whole entry, looked up): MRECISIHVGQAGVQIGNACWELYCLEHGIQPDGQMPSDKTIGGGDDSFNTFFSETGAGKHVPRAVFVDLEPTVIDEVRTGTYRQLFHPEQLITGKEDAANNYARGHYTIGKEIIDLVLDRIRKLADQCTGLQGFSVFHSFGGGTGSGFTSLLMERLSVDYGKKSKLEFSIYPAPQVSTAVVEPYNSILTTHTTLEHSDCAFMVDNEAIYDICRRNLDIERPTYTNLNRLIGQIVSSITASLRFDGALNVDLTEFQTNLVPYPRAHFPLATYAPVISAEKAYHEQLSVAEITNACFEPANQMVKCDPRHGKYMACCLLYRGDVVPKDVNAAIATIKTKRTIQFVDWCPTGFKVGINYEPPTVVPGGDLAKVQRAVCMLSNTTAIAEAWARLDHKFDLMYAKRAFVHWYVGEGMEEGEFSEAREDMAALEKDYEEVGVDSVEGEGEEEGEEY

| ED50 ratio [1] | SMILES | ED50 ratio [2] |
| --- | --- | --- |
| 1 | CC(=O)O[C@H]1C(=O)[C@@]2(C)[C@H]([C@H](OC(=O)c3ccccc3)[C@]3(O)C[C@H](OC(=O)[C@H](O)[C@@H](NC(=O)c4ccccc4)c4ccccc4)C(C)=C1C3(C)C)[C@]1(OC(C)=O)CO[C@@H]1C[C@@H]2O [PACLITAXEL] | 1 |
| 2.61 | CC(=O)O[C@H]1C(=O)[C@@]2(C)[C@H]([C@H](OC(=O)c3ccccc3)[C@]3(O)C[C@H](OC(=O)[C@H](O)[C@@H](NC(=O)C(C)(C)C)c4ccccc4)C(C)=C1C3(C)C)[C@]1(OC(C)=O)CO[C@@H]1C[C@@H]2O | 22.4 |

The next lines start with the molecule.

| SMILES | ED50 ratio [1] | ED50 ratio [2] |
| --- | --- | --- |
| CC(=O)O[C@H]1C(=O)[C@@]2(C)[C@H]([C@H](OC(=O)c3ccccc3)[C@]3(O)C[C@H](OC(=O)[C@H](O)[C@@H](NC(=O)CC(C)(C)C)c4ccccc4)C(C)=C1C3(C)C)[C@]1(OC(C)=O)CO[C@@H]1C[C@@H]2O | 0.74 | 3.13 |
| CC(=O)O[C@H]1C(=O)[C@@]2(C)[C@H]([C@H](OC(=O)c3ccccc3)[C@]3(O)C[C@H](OC(=O)[C@H](O)[C@@H](NC(=O)CC(C)C)c4ccccc4)C(C)=C1C3(C)C)[C@]1(OC(C)=O)CO[C@@H]1C[C@@H]2O | 1.18 | 2.65 |
| CC(=O)O[C@H]1C(=O)[C@@]2(C)[C@H]([C@H](OC(=O)c3ccccc3)[C@]3(O)C[C@H](OC(=O)[C@H](O)[C@@H](NC(=O)c4c(F)c(F)c(N=[N+]=[N-])c(F)c4F)c4ccccc4)C(C)=C1C3(C)C)[C@]1(OC(C)=O)CO[C@@H]1C[C@@H]2O | 4.6 | 14.8 |
| CC(=O)O[C@@]12CO[C@@H]1C[C@H](O)[C@@]1(C)C(=O)[C@H](O)C3=C(C)[C@@H](OC(=O)[C@H](O)[C@@H](NC(=O)OC(C)(C)C)c4ccccc4)C[C@@](O)([C@@H](OC(=O)c4ccccc4)[C@H]21)C3(C)C.O.O.O [DOCETAXEL] | 0.55 | 0.23 |
